# Earlier results in patent publication US20090041840A1, “Positive wakeup pharmaceutical sleep system with compatible pre-bedtime administration” (priority 2003, published 2009).
# Assays:
# [1] = Wesensten
# [2] = not given; remark: listed apart in the source
smiles,measurement,setting,value
COC(=O)C(c1ccccc1)C1CCCCN1 (racemic) [methylphenidate],"Half-life, average",literature sources,2.5 h
"CCOC(=O)c1ncn2c1CN(C)C(=O)c1cc(F)ccc1-2 [Flumazenil, ethyl 8-fluoro-5,6-dihydro-5-methyl-6-oxo-4H-imidazo(1,5a)(1,4)benzodiazepine-3-carboxylate]",Effect in countering sleep deprivation,[1],ineffective
"Cn1c(=O)c2c(ncn2C)n(C)c1=O [caffeine, 1,3,7-trimethylxanthine]",Mean half-life in plasma,"healthy individuals, Brachtel and Richter, Busto et al.",about 5 hours
NC(=O)C[S+]([O-])C(c1ccccc1)c1ccccc1 (centres unmarked) [modafinil],Half-life,"Wong, et al",approximately 15 hours
CCN(C(C)=O)c1cccc(-c2ccnc3c(C#N)cnn23)c1 [zaleplon],Solubility in water,[2],practically insoluble
